According to PubChem BioAssay AID206 (DTP/NCI, 2004):
Values joined by “and” are separate entries in the source; they are usually repeats but may differ in a detail not shown here. Equal entries are not always repeated. Inconclusive results are not listed.

Tested on: nude mice, HT29 intrarenal xenograft, tumor weight T/C
Experiment: NCI In Vivo Anticancer Drug Screen. Data for tumor model HT29;CX-1 Human Adenocarcinoma (MER+) (intrarenal inoculation) in NU/NU Swiss (nude) mice
Conditions: endpoint: mean tumor weight change, higher = larger tumour
Method: The antitumor activity of compounds was measured in mice bearing transplantable tumors. Survival or tumor size were measured and the results are expressed as the measurement made in the treated group (T) divided by the measurement made in the vehicle treated control group (C). The tumor model used in this assay is HT29;CX-1 Human Adenocarcinoma (MER+) (intrarenal inoculation) in NU/NU Swiss (nude) mice

[1] = dose: 25.0 mg/kg/injection, schedule: Q01DX010 (sc), vehicle: Klucel (hydroxypropylcellulose) (HPC)
[2] = dose: 100.0 mg/kg/injection, schedule: Q01DX010 (sc), vehicle: saline with Tween-80
[3] = dose: 200.0 mg/kg/injection, schedule: Q01DX010 (sc), vehicle: saline with Tween-80
[4] = dose: 50.0 mg/kg/injection, schedule: Q01DX010 (sc), vehicle: saline
[5] = dose: 150.0 mg/kg/injection, schedule: Q04DX004 (sc), vehicle: Klucel (hydroxypropylcellulose) (HPC)
[6] = dose: 300.0 mg/kg/injection, schedule: Q04DX004 (sc), vehicle: Klucel (hydroxypropylcellulose) (HPC)
[7] = dose: 600.0 mg/kg/injection, schedule: Q04DX004 (sc), vehicle: Klucel (hydroxypropylcellulose) (HPC)
[8] = dose: 1200.0 mg/kg/injection, schedule: Q04DX004 (sc), vehicle: Klucel (hydroxypropylcellulose) (HPC)

CC(=O)OCc1cc(=O)n(C)c2c3c4c(cc12)c(C)cc(=O)n4CO3
T/C [1]: 99 % of control
T/C (dose: 50.0 mg/kg/injection, schedule: Q01DX010 (sc), vehicle: Klucel (hydroxypropylcellulose) (HPC)): 105 % of control
T/C (dose: 100.0 mg/kg/injection, schedule: Q01DX010 (sc), vehicle: Klucel (hydroxypropylcellulose) (HPC)): 59 % of control
T/C (dose: 200.0 mg/kg/injection, schedule: Q01DX010 (sc), vehicle: Klucel (hydroxypropylcellulose) (HPC)): 34 % of control

COc1ccc(CC2C(=O)NC(C)C(=O)N(C)C3C(=O)N(C)C(Cc4ccc(O)c(c4)Oc4ccc(cc4)C3O)C(=O)NC(C)C(=O)NC(C)C(=O)N2C)cc1 (stereo unspecified)
T/C (dose: 0.25 mg/kg/injection, schedule: Q01DX010 (sc), vehicle: saline with Tween-80): 94 % of control

CC(/C=N/N=C(N)N)=N\N=C(N)N
T/C (dose: 12.5 mg/kg/injection, schedule: Q01DX010 (sc), vehicle: water): 67 % of control

CC1(CO)C(O)CCC2(C)C1CCC1CC3CC12CCC3(O)CO (stereo unspecified)
T/C (dose: 50.0 mg/kg/injection, schedule: Q01DX010 (sc), vehicle: saline with Tween-80): 50 % of control and 65 % of control
T/C [2]: 69 % of control
T/C [3]: 65 % of control

NC(=O)c1csc(C2OC(CO)C(O)C2O)n1 (stereo unspecified)
T/C (dose: 125.0 mg/kg/injection, schedule: Q04DX004 (sc), vehicle: water): 119 % of control

NC(=S)c1cn(C2OC(CO)C(O)C2O)c2ncnc(N)c12 (stereo unspecified)
T/C (dose: 6.25 mg/kg/injection, schedule: Q04DX004 (sc), vehicle: suspension in saline): 62 % of control
T/C (dose: 12.5 mg/kg/injection, schedule: Q04DX004 (sc), vehicle: suspension in saline): 79 % of control

CS(C)=O
T/C (dose: 750.0 mg/kg/injection, schedule: Q01DX010 (sc), vehicle: saline): 36 % of control
T/C (dose: 1500.0 mg/kg/injection, schedule: Q01DX010 (sc), vehicle: saline): 31 % of control
T/C (dose: 3000.0 mg/kg/injection, schedule: Q01DX010 (sc), vehicle: saline): 89 % of control
T/C (dose: 6000.0 mg/kg/injection, schedule: Q01DX010 (sc), vehicle: saline): 75 % of control

Nc1nc(F)nc2c1ncn2C1OC(COP(=O)(O)O)C(O)C1O (stereo unspecified)
T/C [4]: 91 % of control
T/C (dose: 100.0 mg/kg/injection, schedule: Q01DX010 (sc), vehicle: saline): 84 % of control
T/C (dose: 200.0 mg/kg/injection, schedule: Q01DX010 (sc), vehicle: saline): 22 % of control

CC1CN1C(=O)NCCCCCCNC(=O)N1CC1C (stereo unspecified)
T/C (dose: 10.0 mg/kg/injection, schedule: Q04DX004 (sc), vehicle: Klucel (hydroxypropylcellulose) (HPC)): 36 % of control
T/C (dose: 40.0 mg/kg/injection, schedule: Q04DX004 (sc), vehicle: Klucel (hydroxypropylcellulose) (HPC)): 16 % of control

CC(=O)OCC1OC(OC2=C(CC=C(C)C)C(=O)c3ccccc3C2=O)C(OC(C)=O)C(OC(C)=O)C1OC(C)=O (stereo unspecified)
T/C (dose: 100.0 mg/kg/injection, schedule: Q04DX004 (sc), vehicle: Klucel (hydroxypropylcellulose) (HPC)): 159 % of control
T/C (dose: 200.0 mg/kg/injection, schedule: Q04DX004 (sc), vehicle: Klucel (hydroxypropylcellulose) (HPC)): 105 % of control

O=CN(SSN(C=O)C1CCCCC1)C1CCCCC1
T/C [2]: 36 % of control
T/C [3]: 178 % of control
T/C (dose: 400.0 mg/kg/injection, schedule: Q01DX010 (sc), vehicle: saline with Tween-80): 85 % of control
T/C (dose: 800.0 mg/kg/injection, schedule: Q01DX010 (sc), vehicle: saline with Tween-80): 90 % of control

C(=N/NC1=NCCN1)/c1c2ccccc2c(/C=N\NC2=NCCN2)c2ccccc12
T/C (dose: 18.75 mg/kg/injection, schedule: Q04DX004 (sc), vehicle: saline): 83 % of control
T/C (dose: 37.5 mg/kg/injection, schedule: Q04DX004 (sc), vehicle: saline): 105 % of control
T/C (dose: 75.0 mg/kg/injection, schedule: Q04DX004 (sc), vehicle: saline): 75 % of control

C=C1C(=O)OCC2C(C(=O)O)=CC3C(C)C(C)=CC123 (stereo unspecified)
T/C (dose: 12.5 mg/kg/injection, schedule: Q01DX010 (sc), vehicle: Klucel (hydroxypropylcellulose) (HPC)): 71 % of control
T/C [1]: 94 % of control

COc1cc2c(c(OC)c1OC)-c1c(cc3c(c1OC)OCO3)CC(C)C(C)(O)C2OC(=O)c1ccccc1 (stereo unspecified)
T/C (dose: 75.0 mg/kg/injection, schedule: Q04DX004 (sc), vehicle: saline + alcohol): 63 % of control

CCCCNC(C)C1(O)Cc2c(O)c3c(c(O)c2C(OC2CC(N)C(O)C(C)O2)C1)C(=O)c1c(OC)cccc1C3=O (stereo unspecified)
T/C (dose: 100.0 mg/kg/injection, schedule: Q01DX010 (sc), vehicle: water): 44 % of control

C=C1C(=O)C23[C@H](O)C1CC[C@H]2[C@]12COC3(O)[C@@H](O)[C@@H]1C(C)(C)CC[C@@H]2O
T/C (dose: 25.0 mg/kg/injection, schedule: Q04DX004 (sc), vehicle: Klucel (hydroxypropylcellulose) (HPC)): 80 % of control

CN(C)N=Nc1cccc(C(N)=O)c1
T/C (dose: 50.0 mg/kg/injection, schedule: Q04DX004 (sc), vehicle: Klucel (hydroxypropylcellulose) (HPC)): 92 % of control and 116 % of control

COc1cc(NCc2ccc3nc(N)nc(N)c3c2C)cc(OC)c1OC
T/C (dose: 9.35 mg/kg/injection, schedule: Q04DX004 (sc), vehicle: water): 88 % of control
T/C (dose: 10.0 mg/kg/injection, schedule: Q01DX010 (sc), vehicle: sodium bicarbonate): 35 % of control
T/C (dose: 18.7 mg/kg/injection, schedule: Q04DX004 (sc), vehicle: water): 117 % of control
T/C (dose: 37.5 mg/kg/injection, schedule: Q04DX004 (sc), vehicle: water): 32 % of control

OCCN1CCN(CC/C=C2/c3ccccc3Sc3ccc(C(F)(F)F)cc32)CC1
T/C (dose: 5.0 mg/kg/injection, schedule: Q01DX010 (sc), vehicle: saline): 80 % of control
T/C (dose: 10.0 mg/kg/injection, schedule: Q01DX010 (sc), vehicle: saline): 49 % of control
T/C (dose: 20.0 mg/kg/injection, schedule: Q01DX010 (sc), vehicle: saline): 67 % of control
T/C (dose: 40.0 mg/kg/injection, schedule: Q01DX010 (sc), vehicle: saline): 42 % of control

CC1=CC(=Nc2ccc(N(CCCl)CCCl)cc2)C=C(C)C1=O
T/C [5]: 71 % of control
T/C [6]: 76 % of control
T/C [7]: 53 % of control

O=c1n(CC2CO2)c(=O)n(CC2CO2)c(=O)n1CC1CO1 (stereo unspecified)
T/C (dose: 18.75 mg/kg/injection, schedule: Q04DX004 (sc), vehicle: saline with Tween-80): 42 % of control
T/C (dose: 25.0 mg/kg/injection, schedule: Q01DX010 (sc), vehicle: saline): 76 % of control
T/C (dose: 37.5 mg/kg/injection, schedule: Q04DX004 (sc), vehicle: saline with Tween-80): 33 % of control
T/C [4]: 29 % of control

Cc1cc2cc3cc(C)c(N)cc3nc2cc1N
T/C (dose: 50.0 mg/kg/injection, schedule: Q04DX004 (sc), vehicle: saline with Tween-80): 86 % of control
T/C (dose: 100.0 mg/kg/injection, schedule: Q04DX004 (sc), vehicle: saline with Tween-80): 90 % of control
T/C (dose: 200.0 mg/kg/injection, schedule: Q04DX004 (sc), vehicle: saline with Tween-80): 82 % of control
T/C (dose: 300.0 mg/kg/injection, schedule: Q04DX004 (sc), vehicle: saline with Tween-80): 89 % of control
T/C (dose: 400.0 mg/kg/injection, schedule: Q04DX004 (sc), vehicle: saline with Tween-80): 66 % of control
T/C (dose: 600.0 mg/kg/injection, schedule: Q04DX004 (sc), vehicle: saline with Tween-80): 21 % of control
T/C (dose: 1200.0 mg/kg/injection, schedule: Q04DX004 (sc), vehicle: saline with Tween-80): 37 % of control
T/C (dose: 2400.0 mg/kg/injection, schedule: Q04DX004 (sc), vehicle: saline with Tween-80): 45 % of control

Cc1ccc(S(=O)(=O)OCOS(=O)(=O)c2ccc(C)cc2)cc1
T/C [5]: 118 % of control
T/C [6]: 100 % of control
T/C [7]: 53 % of control
T/C [8]: 68 % of control

CC1(O)CC23CC(O)C4(O)C(CC(O)C4(C)C)C(C)(O)C2CCC1C3O (stereo unspecified)
T/C (dose: 0.25 mg/kg/injection, schedule: Q04DX004 (sc), vehicle: Klucel (hydroxypropylcellulose) (HPC)): 46 % of control
T/C (dose: 0.5 mg/kg/injection, schedule: Q04DX004 (sc), vehicle: Klucel (hydroxypropylcellulose) (HPC)): 37 % of control
T/C (dose: 1.0 mg/kg/injection, schedule: Q04DX004 (sc), vehicle: Klucel (hydroxypropylcellulose) (HPC)): 82 % of control

C=C1C(=O)C2=CC1CCC(=O)C1(C)CCC(OC(C)=O)C(C)(C)C1CC2O (stereo unspecified)
T/C (dose: 60.0 mg/kg/injection, schedule: Q04DX004 (sc), vehicle: Klucel (hydroxypropylcellulose) (HPC)): 91 % of control
T/C (dose: 120.0 mg/kg/injection, schedule: Q04DX004 (sc), vehicle: Klucel (hydroxypropylcellulose) (HPC)): 116 % of control

O=c1[nH]c(=O)n(C2CC(O)C(CO)O2)cc1Br (stereo unspecified)
T/C [7]: 157 % of control
T/C [8]: 91 % of control
T/C (dose: 2400.0 mg/kg/injection, schedule: Q04DX004 (sc), vehicle: Klucel (hydroxypropylcellulose) (HPC)): 59 % of control
